Results reported in US20230097700A1, “AZETIDINE SULFONAMIDE COMPOUND” (DAIICHI SANKYO COMPANY, LIMITED, priority 2019, published 2023).

Tests used:
[1] = tested on: activated T cells (CD4+ T cells derived from the mouse spleen); experiment: Incorporation of 3H-thymidine into activated T cells; type: cell-based, mouse (C57BL/6J); settings: 3H-thymidine incorporation, mouse spleen CD4+ T cells activated with Dynabeads Mouse T-Activator CD3/CD28
Procedure: Effect of a test substance on incorporation of ^3H-thymidine was evaluated using T cells derived from the mouse spleen. The spleen was excised out from a C57BL/6J mouse euthanized, cut into pieces, ground on a cell strainer (40 μm mesh) and centrifuged to collect spleen cells. CD4+ T cells were isolated from the spleen cells by use of EasySep Mouse CD4+ T cell isolation kit (STEMCELL Technologies). CD4+ T cells were seeded to a 96-well round-bottom plate. Test substance dissolved in DMSO (dimethyl sulfoxide) or vehicle (DMSO) was added to culture medium and Dynabeads Mouse T-Activator CD3/CD28 (Thermo Fisher Scientific Inc.) was added. Culture was carried out at 37° C. in 5% CO2. After culture was carried out for 24 hours, ^3H-thymidine (PerkinElmer) diluted with the culture medium was added to individual wells. Culture was further carried out overnight at 37° C. in 5% CO2. In order to measure ^3H-thymidine incorporated in nuclei of the cells, the cells were collected on a filter plate UniFilter-96 GF/B (PerkinElmer) by use of a FilterMate Universal Harvester (PerkinElmer). After the filter plate was placed in a dryer and allowed to stand still for 2 hours or more, scintillation cocktail MicroScint-O (PerkinElmer) was added and radioactivity was measured by TopCount NXT (PerkinElmer). With the radioactivity of a group not containing a test substance being specified as 100% and the radioactivity of a group not activated being specified as 0%, relative radioactivity values of individual wells to which the test substance was added (proliferation rate, % of vehicle) were calculated. The values of “% of vehicle” were entered in analysis software Prism (Version 4.03, GraphPad Software). “Nonlinear regression Log (inhibitor) vs reaction variable tilt” was selected and sigmoid type-fitting (Bottom=0, Top=100) was carried out to calculate 50% inhibition concentration (IC50). The compound of the present invention suppresses ^3H-thymidine incorporation in activated T cells.

[2] = tested on: IFN-α production in mouse spleen cells; experiment: IFN-α production in mouse spleen cells stimulated with TLR9 ligand CpG-ODN D35; type: cell-based, mouse (C57BL/6J)
Procedure: The concentration of test substance added is 1 nM to 300 nM. The graph represents a curve showing response to concentration of a test substance, with the IFN-α production of a group not containing a test substance being specified as 100% and the IFN-α production of a group not stimulated being specified as 0%.
IFN-α production by stimulation with TLR9 ligand CpG-ODN D35 activating pDC was evaluated. Spleen cells were prepared from a C57BL/6J mouse euthanized in the same manner as in Test Example 1 and seeded to a 96-well round-bottom plate. Test substance dissolved in DMSO or vehicle (DMSO) was added to culture medium. After pre-incubation was carried out for 30 minutes, CpG-ODN […] (final concentration 1 μM) was added. Culture was carried out at 37° C. in 5% CO2. After culture was carried out for 24 hours, the culture supernatant was recovered. The concentration of IFN-α in the supernatant was measured by ELISA kit (Mouse IFN-alpha Platinum ELISA Kit, eBioscience). With the IFN-α production of a group not containing a test substance being specified as 100% and the IFN-α production of a group not activated being specified as 0%, relative values of IFN-α production of individual wells (IFN-α production rate, % of vehicle) were calculated. The values of “% of vehicle” of IFN-α production were entered in analysis software Prism (Version 5.0, GraphPad Software). […]

[3] = tested on: ConA induced mouse cytokine production model; experiment: ConA induced mouse cytokine production model, IFN-γ in the plasma; type: in vivo, mouse (Balb/c); settings: one hour before second ConA treatment
Procedure: In this test, mice were treated with concanavalin A (ConA) to activate lymphocytes and the medicinal effect of a test substance was evaluated based on the production of IFN-γ. A system in which cytokine production based on expression of LAT1 is induced, by treating mice with ConA twice at optimal timing, was established. To female Balb/c mice of 7 weeks old, a ConA solution (0.4 mg/mL, Concanavalin A, WAKO, 037-08774) prepared with PBS (D-PBS (−), WAKO, 049-29793) was administered (4 mg/kg, twice at an interval of 16 hours) through the tail vein. Four hours later, under anesthesia by isoflurane inhalation, blood was taken from the posterior vena cava of each of the mice. The blood was centrifuged to collect the plasma. The concentration of IFN-γ in the in plasma was measured by AlphaLISA immunoassay kit (Mouse Interferon-gamma (mIFN-γ) Kit, PerkinElmer, AL501C). Test substance was dissolved in 0.5% MC or mushed in an agate mortar, suspended in 0.5% MC to prepare a solution to be administered (1 or 3 mg/mL) and orally administered one hour before the second treatment with ConA so as to be 10 mL/kg (10 or 30 mg/kg. To Vehicle group, 0.5% MC was administered similarly so as to be 10 mL/kg). Test substances were evaluated. Suppression rates (%) were calculated in accordance with the following expression. Suppression rate (%)=100−[(average value of test substance administration group−average value of Normal group)/(average value of Vehicle group−average value of Normal group)×100] Whether the data of two groups, Normal group and Vehicle group, differ or not was determined by Student's or Welch's t test. Whether the data of Vehicle group and a test substance administration group are different or not was analyzed by parametric multiple comparison test, Dunnett test. The compounds (test substances) suppressed IFN-γ production in a dose-dependent manner.

Row | SMILES | IC50 [1] [nM] | IC50 ([2]; CpG-ODN stimulation 1 μM, 24 hours, ELISA) [nM] | suppressive action on IFN-α production ([2]; test substance 1 nM to 300 nM) | Percent suppression (%) ([3]; 10 mg/kg oral) | Percent suppression (%) ([3]; 30 mg/kg oral)
1 | N[C@@H](Cc1cccc(S(=O)(=O)N2CC(Oc3cccc(F)c3)(c3ccccc3)C2)c1)C(=O)O [Example 1, (2S)-2-Amino-3-(3-{[3-(3-fluorophenoxy)-3-phenylazetidin-1-yl]sulfonyl)phenyl)propanoic acid] | 20 | 13 | concentration-dependent suppressive action | – | –
2 | Cl.[2H]c1c([2H])c([2H])c(OC2(c3ccccc3)CN(S(=O)(=O)c3cccc(C[C@H](N)C(=O)OC(C(=O)N(C)C)C(C)C)c3)C2)c([2H])c1[2H] (stereo partly drawn) [Example 25, 1-(Dimethylamino)-3-methyl-1-oxobutan-2-yl (2S)-2-amino-3-(3-{3-phenyl-3-[(^2H5)phenyloxy]azetidin-1-sulfonyl}phenyl)propanoate monohydrochloride] | – | – | – | 31 | 51
3 | Cl.[2H]c1c([2H])c([2H])c(OC2(c3ccc(F)cc3)CN(S(=O)(=O)c3cccc(C[C@H](N)C(=O)OC(C(=O)N(C)C)C(C)C)c3)C2)c([2H])c1[2H] (stereo partly drawn) [Example 27, 1-(Dimethylamino)-3-methyl-1-oxobutan-2-yl (2S)-2-amino-3-(3-{3-(4-fluorophenyl)-3-[(^2H5)phenyloxy]azetidin-1-sulfonyl}phenyl)propanoate monohydrochloride] | – | – | – | 47 | 58
4 | CC(OC(=O)[C@@H](N)Cc1cccc(S(=O)(=O)N2CC(Oc3ccc(F)cc3)(c3ccc(F)cn3)C2)c1)C(=O)N(C)C.Cl.Cl (stereo partly drawn) [Example 62, 1-(Dimethylamino)-1-oxopurpan-2-yl (2S)-2-amino-3-(3-{[3-(4-fluorophenoxy)-3-(5-fluoropyridin-2-yl)azetidin-1-yl]sulfonyl}phenyl)propanoate dihydrochloride] | – | – | – | 43 | 54
5 | CC(C)C(OC(=O)[C@@H](N)Cc1cccc(S(=O)(=O)N2CC(Oc3ccc(F)cc3)(c3ccc(F)cn3)C2)c1)C(=O)N(C)C.Cl.Cl (stereo partly drawn) [Example 69, 1-(Dimethylamino)-3-methyl-1-oxobutan-2-yl (2S)-2-amino-3-(3-{[3-(4-fluorophenoxy)-3-(5-fluoropyridin-2-yl)azetidin-1-yl]sulfonyl}phenyl)propanoate dihydrochloride] | – | – | – | 33 | 44
6 | CC(C)C(OC(=O)[C@@H](N)Cc1cccc(S(=O)(=O)N2CC(Oc3ccccc3)(c3ccccc3)C2)c1)C(=O)N(C)C.Cl (stereo partly drawn) [Example 91, 1-(Dimethylamino)-3-methyl-1-oxobutan-2-yl (2S)-2-amino-3-[3-(3-phenoxy-3-phenylazetidin-1-sulfonyl)phenyl]propanoate monohydrochloride] | – | – | – | 55 | 53
7 | CC(C)C(OC(=O)[C@@H](N)Cc1cccc(S(=O)(=O)N2CC(Oc3ccccc3)(c3ccc(F)cc3)C2)c1)C(=O)N(C)C.Cl (stereo partly drawn) [Example 93, 1-(Dimethylamino)-3-methyl-1-oxobutan-2-yl (2S)-2-amino-3-(3-{[3-(4-fluorophenyl)-3-phenoxyazetidin-1-yl]sulfonyl}phenyl)propanoate monohydrochloride] | – | – | – | 46 | 34
